# Experimental data from PMC12514841 (Protein Science : A Publication of the Protein Society, 2025).
# “And” between values parts separate entries of the source, which are not always exact repeats. Equal values may be shown once.
# What was measured:
# Format in all cases: biochemical
# BlaC I105Y = BlaC I105Y (Mycobacterium tuberculosis, UniProt P9WKD3, I117Y); settings: pH 6.4
# BlaC I105G-G132N [1] = target: T1, BlaC I105G-G132N (Mycobacterium tuberculosis, UniProt P9WKD3, G144N/I117G)
# BlaC I105Y-S130G [2] = target: T2, BlaC I105Y-S130G (Mycobacterium tuberculosis, UniProt P9WKD3, I117Y/S142G); settings: pH 6.4
# BlaC G132N = BlaC G132N (Mycobacterium tuberculosis, UniProt P9WKD3, G132N/G144N)
# BlaC S130G = BlaC S130G (Mycobacterium tuberculosis, UniProt P9WKD3, S142G)
# BlaC I105G = BlaC I105G (Mycobacterium tuberculosis, UniProt P9WKD3, I117G); settings: pH 6.4
# BlaC I105Y-S130G [3] = target: T2, BlaC I105Y-S130G
# BlaC I105G-G132N [4] = target: T1, BlaC I105G-G132N; remark: listed apart in the source
smiles,measurement,setting,value
"CC1(C)S[C@@H]2[C@H](NC(=O)[C@H](N)c3ccccc3)C(=O)N2[C@H]1C(=O)O [Ampicillin, ampicillin]",KMapp,BlaC I105Y,89 ± 7 µM
same,k cat,BlaC I105Y,48 ± 1 and 48 ± 1 s^−1
same,k cat /K M ^app relative to the wild-type,BlaC I105Y,4.43 ± 0.1
same,k cat/K M ^app,BlaC I105Y,0.98 ± 0.02 and 0.98 ± 0.02 μM^−1 s^−1
same,kcat,BlaC I105Y,28 ± 1 s⁻¹
same,kcat/KMapp,BlaC I105Y,0.32 ± 0.03 µM⁻¹ s⁻¹
same,kcat/KMapp relative to the wild-type,BlaC I105Y,1.52 ± 0.14
same,factor by which the magnitude of positive epistasis diminished in MES buffer,BlaC I105G-G132N [1],7.4
same,KMapp,BlaC I105G-G132N [1]; pH 6.4,183 ± 21 µM
same,k cat,BlaC I105G-G132N [1]; pH 6.4,18 ± 1 and 18 ± 1 s^−1
same,k cat /K M ^app relative to the wild-type,BlaC I105G-G132N [1]; pH 6.4,0.95 ± 0.05
same,k cat/K M ^app,BlaC I105G-G132N [1]; pH 6.4,0.20 ± 0.01 and 0.20 ± 0.01 μM^−1 s^−1
same,kcat,BlaC I105G-G132N [1]; pH 6.4,54 ± 2 s⁻¹
same,kcat/KMapp,BlaC I105G-G132N [1]; pH 6.4,0.30 ± 0.04 µM⁻¹ s⁻¹
same,kcat/KMapp relative to the wild-type,BlaC I105G-G132N [1]; pH 6.4,1.42 ± 0.05
same,KMapp,BlaC I105Y-S130G [2],813 ± 132 µM
same,k cat,BlaC I105Y-S130G [2],17 ± 1 and 17 ± 1 s^−1
same,k cat /K M ^app relative to the wild-type,BlaC I105Y-S130G [2],0.270 ± 0.005
same,k cat/K M ^app,BlaC I105Y-S130G [2],0.057 ± 0.001 and 0.057 ± 0.001 μM^−1 s^−1
same,kcat,BlaC I105Y-S130G [2],23 ± 3 s⁻¹
same,kcat/KMapp,BlaC I105Y-S130G [2],0.029 ± 0.006 µM⁻¹ s⁻¹
same,kcat/KMapp relative to the wild-type,BlaC I105Y-S130G [2],0.14 ± 0.03
same,KMapp,BlaC G132N; pH 6.4,282 ± 9 µM
same,k cat,BlaC G132N; pH 6.4,33 ± 12 and 33 ± 12 s^−1
same,k cat /K M ^app relative to the wild-type,BlaC G132N; pH 6.4,0.10 ± 0.05
same,k cat/K M ^app,BlaC G132N; pH 6.4,0.02 ± 0.01 and 0.02 ± 0.01 μM^−1 s^−1
same,kcat,BlaC G132N; pH 6.4,61 ± 1 s⁻¹
same,kcat/KMapp,BlaC G132N; pH 6.4,0.22 ± 0.01 µM⁻¹ s⁻¹
same,kcat/KMapp relative to the wild-type,BlaC G132N; pH 6.4,1.04 ± 0.05
same,fold decrease in k cat/K M ^app compared to the wild-type,BlaC S130G,approximately 30 fold
same,fold higher activity in MES than in phosphate buffer,BlaC S130G,roughly 5 fold
same,k cat fold lower than for wild-type BlaC,BlaC S130G,8 fold
same,k cat times higher than for wild-type BlaC,BlaC S130G,2.5 times
same,KMapp,BlaC S130G; pH 6.4,588 µM
same,k cat,BlaC S130G; pH 6.4,1.7 ± 1 and 1.7 ± 1 s^−1
same,k cat /K M ^app relative to the wild-type,BlaC S130G; pH 6.4,0.03 ± 0.01
same,k cat/K M ^app,BlaC S130G; pH 6.4,0.007 ± 0.001 and 0.007 ± 0.001 μM^−1 s^−1
same,kcat,BlaC S130G; pH 6.4,21 ± 1 s⁻¹
same,kcat/KMapp,BlaC S130G; pH 6.4,0.035 ± 0.001 µM⁻¹ s⁻¹
same,kcat/KMapp relative to the wild-type,BlaC S130G; pH 6.4,0.165 ± 0.005
same,KMapp,BlaC I105G,31 ± 6 µM
same,k cat,BlaC I105G,3.95 ± 0.04 and 3.95 ± 0.04 s^−1
same,k cat /K M ^app relative to the wild-type,BlaC I105G,1.00 ± 0.05
same,k cat/K M ^app,BlaC I105G,0.21 ± 0.01 and 0.21 ± 0.01 μM^−1 s^−1
same,kcat,BlaC I105G,6.0 ± 0.4 s⁻¹
same,kcat/KMapp,BlaC I105G,0.21 ± 0.04 µM⁻¹ s⁻¹
same,kcat/KMapp relative to the wild-type,BlaC I105G,1.00 ± 0.19
"CC1(C)S[C@@H]2[C@H](NC(=O)C(C(=O)O)c3ccccc3)C(=O)N2[C@H]1C(=O)O (stereo partly shown) [Carbenicillin, carbenicillin]",K M ^app,BlaC I105Y,1.5 ± 1 µM
same,k cat,BlaC I105Y,2.0 ± 0.1 s⁻¹
same,k cat /K M ^app relative to the wild-type,BlaC I105Y,14.9 ± 0.8
same,k cat/K M ^app,BlaC I105Y,1.34 ± 0.07 µM⁻¹ s⁻¹
same,K M ^app,BlaC I105G-G132N [1]; pH 6.4,7.0 ± 0.9 µM
same,k cat,BlaC I105G-G132N [1]; pH 6.4,0.96 ± 0.07 s⁻¹
same,k cat /K M ^app relative to the wild-type,BlaC I105G-G132N [1]; pH 6.4,1.6 ± 0.2
same,k cat/K M ^app,BlaC I105G-G132N [1]; pH 6.4,0.14 ± 0.02 µM⁻¹ s⁻¹
same,K M ^app,BlaC I105Y-S130G [2],21 ± 3 µM
same,k cat,BlaC I105Y-S130G [2],2.7 ± 0.2 s⁻¹
same,k cat /K M ^app relative to the wild-type,BlaC I105Y-S130G [2],1.4 ± 0.2
same,k cat/K M ^app,BlaC I105Y-S130G [2],0.13 ± 0.02 µM⁻¹ s⁻¹
same,times decrease in catalytic efficiency (k cat/K M ^app) versus the wild-type,BlaC G132N,13 times
same,K M ^app,BlaC G132N; pH 6.4,224 ± 11 µM
same,k cat,BlaC G132N; pH 6.4,1.62 ± 0.02 s⁻¹
same,k cat /K M ^app relative to the wild-type,BlaC G132N; pH 6.4,0.080 ± 0.004
same,k cat/K M ^app,BlaC G132N; pH 6.4,0.0072 ± 0.0004 µM⁻¹ s⁻¹
same,K M ^app,BlaC S130G; pH 6.4,72 ± 5 µM
same,k cat,BlaC S130G; pH 6.4,1.2 ± 0.1 s⁻¹
same,k cat /K M ^app relative to the wild-type,BlaC S130G; pH 6.4,0.22 ± 0.01
same,k cat/K M ^app,BlaC S130G; pH 6.4,0.020 ± 0.001 µM⁻¹ s⁻¹
same,K M ^app,BlaC I105G,1.5 ± 0.4 µM
same,k cat,BlaC I105G,0.12 ± 0.01 s⁻¹
same,k cat /K M ^app relative to the wild-type,BlaC I105G,0.90 ± 0.04
same,k cat/K M ^app,BlaC I105G,0.081 ± 0.004 µM⁻¹ s⁻¹
"O=C(O)[C@H]1/C(=C/CO)O[C@@H]2CC(=O)N21 [Clavulanic acid, clavulanic acid]",incubation time after which the enzyme is fully inhibited,BlaC I105Y-S130G [3],2 h
same,state of the enzyme after 24 h of incubation,BlaC I105Y-S130G [3],stays fully inhibited
same,activity,"BlaC I105Y-S130G [3]; read-out: recovery of activity, of the control activity",63%
same,course of residual activity during incubation,BlaC I105G-G132N [4],"initially a slight drop in activity, followed by a swift recovery"
"O=C(Cc1cccs1)N[C@@H]1C(=O)N2C(C(=O)O)=C(/C=C/c3ccc([N+](=O)[O-])cc3[N+](=O)[O-])CS[C@H]12 [Nitrocefin, nitrocefin]",K M ^app,BlaC I105Y,18 ± 1 µM
same,k cat,BlaC I105Y,39 ± 10 s⁻¹
same,k cat /K M ^app relative to the wild-type,BlaC I105Y,4.2 ± 0.2
same,k cat/K M ^app,BlaC I105Y,2.1 ± 0.1 µM⁻¹ s⁻¹
same,K M ^app,BlaC I105G-G132N [1]; pH 6.4,115 ± 1 µM
same,k cat,BlaC I105G-G132N [1]; pH 6.4,41 ± 1 s⁻¹
same,k cat /K M ^app relative to the wild-type,BlaC I105G-G132N [1]; pH 6.4,0.71 ± 0.01
same,k cat/K M ^app,BlaC I105G-G132N [1]; pH 6.4,0.357 ± 0.005 µM⁻¹ s⁻¹
same,k cat,BlaC I105Y-S130G [2],21 ± 7 and 21 ± 7 s^−1
same,k cat /K M ^app relative to the wild-type,BlaC I105Y-S130G [2],0.08 ± 0.04
same,kcat,BlaC I105Y-S130G [2],13 ± 4 s⁻¹ and 13 ± 1 s⁻¹
same,K M ^app,BlaC G132N; pH 6.4,210 ± 30 µM
same,k cat,BlaC G132N; pH 6.4,18 ± 2 s⁻¹
same,k cat /K M ^app relative to the wild-type,BlaC G132N; pH 6.4,0.16 ± 0.04
same,k cat/K M ^app,BlaC G132N; pH 6.4,0.08 ± 0.02 µM⁻¹ s⁻¹
same,fold decrease in k cat/K M ^app compared to the wild-type,BlaC S130G,approximately 30 fold
same,K M ^app,BlaC S130G; pH 6.4,358 ± 4 µM
same,k cat,BlaC S130G; pH 6.4,5 ± 1 s⁻¹
same,k cat /K M ^app relative to the wild-type,BlaC S130G; pH 6.4,0.03 ± 0.01
same,k cat/K M ^app,BlaC S130G; pH 6.4,0.014 ± 0.003 µM⁻¹ s⁻¹
same,K M ^app,BlaC I105G,240 ± 40 µM
same,k cat,BlaC I105G,79 ± 5 s⁻¹
same,k cat /K M ^app relative to the wild-type,BlaC I105G,0.68 ± 0.04
same,k cat/K M ^app,BlaC I105G,0.34 ± 0.02 µM⁻¹ s⁻¹
